From patent US9845297B2, “Antimicrobial compounds and methods of making and using the same” (Melinta Therapeutics, Inc., priority 2009, dated 2017)

tested on: Eschericia coli strain ATCC25922; assay: standard microdilution assay to determine minimum inhibitory concentrations (MICs); type: cell-based; settings: Escherichia coli, ATCC25922, Eschericia coli strain ATCC25922, standard microdilution assay; read-out: E. coli ATCC25922 MIC
Experimental: Minimum inhibitory concentrations (MICs) are determined by the microdilution method, typically in a final volume of 100 microliters, according to protocols outlined by The Clinical and Laboratory Standards Institute [CLSI; formerly the National Committee for Clinical Laboratory Standards (NCCLS)]. See CLSI: Methods for dilution antimicrobial susceptibility tests for bacteria that grow aerobically; approved standard-fifth edition. Wayne, Pa.: NCCLS; 2000. The assays can be also be performed in microtiter trays according to conventional methodologies as published by the CLSI. See CLSI. Methods for Dilution Antimicrobial Susceptibility Tests for Bacteria That Grow Aerobically; Approved Standard-Seventh Edition. CLSI Document M7-A7 [ISBN 1-56238-587-9] CLSI, 940 West Valley Road, Suite 1400, Wayne Pa. 19087-1898 USA, 2006).
The compounds of the present invention were tested for antimicrobial activity. The compounds were run against Eschericia coli strain ATCC25922 using a standard microdilution assay to determine minimum inhibitory concentrations (MICs). […] A “N/A” means that data is unavailable. It will be recognized by one skilled in the art that the compounds can be assessed against other bacterial organisms and that the presentation of data for activity against Eschericia coli is illustrative and in no way is intended to limit the scope of the present invention. The compounds of the present invention can be assayed against a range of other microorganisms depending upon the performance activity desired to be gathered. Furthermore, the “+”, “−”, and “N/A” representation and the selection of a cutoff value of 16 micrograms/ml is also illustrative and in no way is intended to limit the scope of the present invention.

`NCCCN(CCCN)Cc1ccc(-c2c[nH]c(NC(=O)Nc3ccccc3OC(F)(F)F)nc2=O)cc1F` [Compound 308] and `NCCCN(CCCO)Cc1ccc(-c2c[nH]c(NC(=O)Nc3ccccc3OC(F)(F)F)nc2=O)cc1` [Compound 324] cannot be ordered by MIC: under 16 µg/mL for the first, under 16 µg/mL for the second.

`NCCCN(CCCN)Cc1ccc(-c2c[nH]c(NC(=O)Nc3cc(F)c(F)cc3F)nc2=O)cc1F` [Compound 311] and `NCCCN(CCCO)Cc1ccc(-c2c[nH]c(NC(=O)Nc3cc(F)c(F)cc3F)nc2=O)cc1` [Compound 331] cannot be ordered by MIC: over 16 µg/mL for the first, over 16 µg/mL for the second.

First: NCCCN(Cc1ccc(-c2c[nH]c(NC(=O)Nc3ccccc3OC(F)(F)F)nc2=O)cc1)CC1CC1 [Compound 312]
Second: NCCCN(CCC(=O)O)Cc1ccc(-c2c[nH]c(NC(=O)Nc3ccccc3OC(F)(F)F)nc2=O)cc1 [Compound 321]
The MIC of the first is lower: under 16 µg/mL for the first, over 16 µg/mL for the second.

`O=C(Nc1nc(=O)c(-c2ccc(CNCc3ncc[nH]3)cc2)c[nH]1)Nc1cc(F)c(F)cc1F` [Compound 313] and `O=C(Nc1nc(=O)c(-c2ccc(CNCc3nccs3)cc2)c[nH]1)Nc1cc(F)c(F)cc1F` [Compound 330] cannot be ordered by MIC: over 16 µg/mL for the first, over 16 µg/mL for the second.

`O=C(Nc1nc(=O)c(-c2ccc(CNCc3ncc[nH]3)cc2)c[nH]1)Nc1ccccc1OC(F)(F)F` [Compound 314] and `O=C(Nc1nc(=O)c(-c2ccc(CNCc3ccncc3)cc2)c[nH]1)Nc1ccccc1OC(F)(F)F` [Compound 319] cannot be ordered by MIC: over 16 µg/mL for the first, over 16 µg/mL for the second.

`O=C(O)CCNCc1ccc(-c2c[nH]c(NC(=O)Nc3cc(F)c(F)cc3F)nc2=O)cc1` [Compound 315] and `O=C(O)CCCNCc1ccc(-c2c[nH]c(NC(=O)Nc3cc(F)c(F)cc3F)nc2=O)cc1` [Compound 327] cannot be ordered by MIC: over 16 µg/mL for the first, over 16 µg/mL for the second.

`CC(C)=CCNCc1ccc(-c2c[nH]c(NC(=O)Nc3ccccc3OC(F)(F)F)nc2=O)cc1` [Compound 316] and `O=C(Nc1nc(=O)c(-c2ccc(CNCCCCO)cc2)c[nH]1)Nc1ccccc1OC(F)(F)F` [Compound 342] cannot be ordered by MIC: over 16 µg/mL for the first, over 16 µg/mL for the second.

`CC(C)=CCNCc1ccc(-c2c[nH]c(NC(=O)Nc3cc(F)c(F)cc3F)nc2=O)cc1` [Compound 317] and `O=C(Nc1nc(=O)c(-c2ccc(CNCCCCO)cc2)c[nH]1)Nc1cc(F)c(F)cc1F` [Compound 341] cannot be ordered by MIC: over 16 µg/mL for the first, over 16 µg/mL for the second.

`NCCCN(CCC(=O)O)Cc1ccc(-c2c[nH]c(NC(=O)Nc3cc(F)c(F)cc3F)nc2=O)cc1` [Compound 320] and `NCCCN(CCCC(=O)O)Cc1ccc(-c2c[nH]c(NC(=O)Nc3cc(F)c(F)cc3F)nc2=O)cc1` [Compound 358] cannot be ordered by MIC: over 16 µg/mL for the first, over 16 µg/mL for the second.

`O=C(Nc1nc(=O)c(-c2ccc(CNCCc3ccncc3)cc2)c[nH]1)Nc1cc(F)c(F)cc1F` [Compound 322] and `O=C(Nc1nc(=O)c(-c2ccc(CNCc3ccncc3)cc2)c[nH]1)Nc1cc(F)c(F)cc1F` [Compound 329] cannot be ordered by MIC: over 16 µg/mL for the first, over 16 µg/mL for the second.

`O=C(Nc1nc(=O)c(-c2ccc(CNCCc3ccncc3)cc2)c[nH]1)Nc1ccccc1OC(F)(F)F` [Compound 323] and `O=C(Nc1nc(=O)c(-c2ccc(CNCCCc3cccnc3)cc2)c[nH]1)Nc1ccccc1OC(F)(F)F` [Compound 364] cannot be ordered by MIC: over 16 µg/mL for the first, over 16 µg/mL for the second.

`NCCCN(Cc1ccc(-c2c[nH]c(NC(=O)Nc3cc(F)c(F)cc3F)nc2=O)cc1)Cc1ncc[nH]1` [Compound 325] and `NCCCN(Cc1ccc(-c2c[nH]c(NC(=O)Nc3cc(F)c(F)cc3F)nc2=O)cc1)Cc1nccs1` [Compound 339] cannot be ordered by MIC: over 16 µg/mL for the first, over 16 µg/mL for the second.

`NCCCN(Cc1ccc(-c2c[nH]c(NC(=O)Nc3ccccc3OC(F)(F)F)nc2=O)cc1)Cc1ncc[nH]1` [Compound 326] and `NCCCN(Cc1ccc(-c2c[nH]c(NC(=O)Nc3ccccc3OC(F)(F)F)nc2=O)cc1)Cc1nccs1` [Compound 340] cannot be ordered by MIC: over 16 µg/mL for the first, over 16 µg/mL for the second.

First: O=C(O)CCCNCc1ccc(-c2c[nH]c(NC(=O)Nc3ccccc3OC(F)(F)F)nc2=O)cc1 [Compound 328]
Second: N=C(N)NCCCNCc1ccc(-c2c[nH]c(NC(=O)Nc3ccccc3OC(F)(F)F)nc2=O)cc1 [Compound 332]
The MIC of the first is higher: over 16 µg/mL for the first, under 16 µg/mL for the second.

`NCCCNCc1ccc(-c2c[nH]c(Nc3nc4ccccc4[nH]3)nc2=O)cc1` [Compound 334] and `NCCCN(CCCN)Cc1ccc(-c2c[nH]c(Nc3nc4ccccc4[nH]3)nc2=O)cc1F` [Compound 351] cannot be ordered by MIC: under 16 µg/mL for the first, under 16 µg/mL for the second.

Compared with `Cn1ccnc1CN(CCCN)Cc1ccc(-c2c[nH]c(NC(=O)Nc3cc(F)c(F)cc3F)nc2=O)cc1` [Compound 336], `NCCCN(Cc1ccncc1)Cc1ccc(-c2c[nH]c(NC(=O)Nc3cc(F)c(F)cc3F)nc2=O)cc1` [Compound 337] is lower in MIC: over 16 µg/mL for the first, under 16 µg/mL for the second.

Going from `NCCCN(Cc1ccncc1)Cc1ccc(-c2c[nH]c(NC(=O)Nc3ccccc3OC(F)(F)F)nc2=O)cc1` [Compound 338] to `NCCCN(CCc1ccncc1)Cc1ccc(-c2c[nH]c(NC(=O)Nc3ccccc3OC(F)(F)F)nc2=O)cc1` [Compound 347], the MIC rises from under 16 µg/mL to over 16 µg/mL.

Compared with `NCCCN(Cc1ccc(-c2c[nH]c(NC(=O)Nc3cc(F)c(F)cc3F)nc2=O)cc1)CC1CC1` [Compound 344], `N=C(N)NCCCN(CCCN)Cc1ccc(-c2c[nH]c(NC(=O)Nc3cc(F)c(F)cc3F)nc2=O)cc1` [Compound 348] is higher in MIC: under 16 µg/mL for the first, over 16 µg/mL for the second.

Going from `Cn1ccnc1CN(CCCN)Cc1ccc(-c2c[nH]c(NC(=O)Nc3ccccc3OC(F)(F)F)nc2=O)cc1` [Compound 345] to `NCCCN(CCCCO)Cc1ccc(-c2c[nH]c(NC(=O)Nc3ccccc3OC(F)(F)F)nc2=O)cc1` [Compound 355], the MIC falls from over 16 µg/mL to under 16 µg/mL.

`CN(CCCNCc1ccc(-c2c[nH]c(NC(=O)Nc3ccccc3OC(F)(F)F)nc2=O)cc1)C(=N)N` [Compound 346] and `CN(CCCN(CCCN)Cc1ccc(-c2c[nH]c(NC(=O)Nc3ccccc3OC(F)(F)F)nc2=O)cc1)C(=N)N` [Compound 365] cannot be ordered by MIC: under 16 µg/mL for the first, under 16 µg/mL for the second.

First: N=C(N)NCCCN(CCCN)Cc1ccc(-c2c[nH]c(NC(=O)Nc3ccccc3OC(F)(F)F)nc2=O)cc1 [Compound 349]
Second: NCCCN(CCCC(=O)O)Cc1ccc(-c2c[nH]c(NC(=O)Nc3ccccc3OC(F)(F)F)nc2=O)cc1 [Compound 359]
The MIC of the first is lower: under 16 µg/mL for the first, over 16 µg/mL for the second.

Compared with `N=C(N)NCCCNCc1ccc(-c2c[nH]c(NC(=O)Nc3cc(F)c(F)cc3F)nc2=O)cc1` [Compound 350], `CN(CCCNCc1ccc(-c2c[nH]c(NC(=O)Nc3cc(F)c(F)cc3F)nc2=O)cc1)C(=N)N` [Compound 353] is higher in MIC: under 16 µg/mL for the first, over 16 µg/mL for the second.

`NCCCN(CCc1ccncc1)Cc1ccc(-c2c[nH]c(NC(=O)Nc3cc(F)c(F)cc3F)nc2=O)cc1` [Compound 354] and `CN(CCCN(CCCN)Cc1ccc(-c2c[nH]c(NC(=O)Nc3cc(F)c(F)cc3F)nc2=O)cc1)C(=N)N` [Compound 366] cannot be ordered by MIC: over 16 µg/mL for the first, over 16 µg/mL for the second.

Compared with `NCCCN(CCCN)Cc1ccc(-c2c[nH]c(Nc3nc4cc(F)c(F)cc4o3)nc2=O)cc1F` [Compound 356], `NCCCN(CCCN)Cc1ccc(-c2c[nH]c(Nc3nc4ccccc4o3)nc2=O)cc1F` [Compound 363] is higher in MIC: under 16 µg/mL for the first, over 16 µg/mL for the second.

Going from `NCCCN(CCCN)Cc1ccc(-c2c[nH]c(Nc3nc4cc(C(F)(F)F)ccc4s3)nc2=O)cc1F` [Compound 357] to `COc1ccc2nc(Nc3nc(=O)c(-c4ccc(CN(CCCN)CCCN)c(F)c4)c[nH]3)[nH]c2c1` [Compound 361], the MIC falls from over 16 µg/mL to under 16 µg/mL.

`O=C(Nc1nc(=O)c(CCN2CCNCC2)c[nH]1)Nc1ccccc1OC(F)(F)F` [Compound 368] and `NCCCN1CCN(CCc2c[nH]c(NC(=O)Nc3ccccc3OC(F)(F)F)nc2=O)CC1` [Compound 369] cannot be ordered by MIC: over 16 µg/mL for the first, over 16 µg/mL for the second.
